{"source": "ChEMBL document CHEMBL1146449", "about": "“Trypanocidal flavonoids from Trixis vauthieri” (1997)", "assay_type_in_all_cases": "functional", "parameters_in_all_cases": "scale not given: the % may be the effect or the level left", "key": {"Trypanosoma cruzi [1]": {"tested_on": "Trypanosoma cruzi", "experiment": "Trypanocidal activity against Trypanosoma cruzi Y strain trypomastigotes infected in Swiss albino mouse blood assessed as reduction of parasitemia at 500 ug/mL after 24 hrs relative to control"}, "Trypanosoma cruzi [2]": {"tested_on": "Trypanosoma cruzi", "experiment": "Trypanocidal activity against Trypanosoma cruzi Y strain trypomastigotes infected in Swiss albino mouse blood assessed as reduction of parasitemia at 1000 ug/mL after 24 hrs relative to control"}, "Trypanosoma cruzi [3]": {"tested_on": "Trypanosoma cruzi", "experiment": "Trypanocidal activity against Trypanosoma cruzi Y strain trypomastigotes infected in Swiss albino mouse blood assessed as reduction of parasitemia at 31 ug/mL after 24 hrs relative to control"}}, "data": [{"smiles": "COc1cc(O)c2c(c1)O[C@H](c1ccc(O)cc1)CC2=O", "note": "[SAKURANETIN]", "values": [{"measurement": "Activity", "setting": "Trypanosoma cruzi [1]", "value": 100, "unit": "%"}]}, {"smiles": "COc1c(OC)c(O)c2c(=O)c(OC)c(-c3ccc(O)cc3)oc2c1OC", "note": "[CALYCOPTERIN]", "values": [{"measurement": "Activity", "setting": "Trypanosoma cruzi [2]", "value": 0, "unit": "%"}]}, {"smiles": "COc1cc2oc(-c3ccc(O)cc3)c(OC)c(=O)c2c(O)c1OC", "note": "[PENDULETIN]", "values": [{"measurement": "Activity", "setting": "Trypanosoma cruzi [1]", "value": 86, "unit": "%"}]}, {"smiles": "CN(C)c1ccc(C(=C2C=CC(=[N+](C)C)C=C2)c2ccc(N(C)C)cc2)cc1.[Cl-]", "note": "[GENTIAN VIOLET]", "values": [{"measurement": "Activity", "setting": "Trypanosoma cruzi [3]", "value": 50, "unit": "%"}]}, {"smiles": "COc1cc(O)c2c(c1)OC(c1ccc(O)cc1)C(O)C2=O", "note": "(stereo not given)", "values": [{"measurement": "Activity", "setting": "Trypanosoma cruzi [2]", "value": 0, "unit": "%"}]}]}
